The source of these data is patent publication US8178535B2, “Substituted sulfonamide compounds having bradykinin 1 receptor activity and use thereof as medicaments” (Gruenenthal GmbH, priority 2008, dated 2012).

Experiment [1] addresses T1, human B1R receptor (hB1R) (Homo sapiens, UniProt P46663).
T1 construct: host or cells: CHO K1 cells
T1 sequence (P46663 1-353): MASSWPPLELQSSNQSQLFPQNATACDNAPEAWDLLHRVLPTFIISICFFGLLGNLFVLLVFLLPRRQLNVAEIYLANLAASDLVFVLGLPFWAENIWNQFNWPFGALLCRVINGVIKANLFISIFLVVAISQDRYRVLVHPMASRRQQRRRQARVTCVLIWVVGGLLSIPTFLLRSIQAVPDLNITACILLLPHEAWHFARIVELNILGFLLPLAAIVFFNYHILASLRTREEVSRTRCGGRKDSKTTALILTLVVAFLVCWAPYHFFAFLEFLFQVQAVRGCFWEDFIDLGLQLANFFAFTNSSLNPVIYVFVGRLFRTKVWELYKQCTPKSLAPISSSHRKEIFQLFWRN
Nature of the experiment: FLIPR Ca2+ assay (Fluo-4) on CHO K1 cells stably transfected with the human B1R gene. In kind it is cell-based. As to conditions: CHO-K1; test substance 10 μM; agonist Lys-Des-Arg9-bradykinin 0.5 nM; % inhibition compared to the maximum achievable inhibition. Summed up: (§1)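 CHO K1 cells stably expressing human or rat B1R, Fluo-4 loaded, read by FLIPR (Ex 488/Em 540, peak fluorescence). Compound at 10 μM gives % activation vs agonist. After 10 min, agonist added (human: Lys-Des-Arg9-bradykinin 0.5 nM; rat: Des-Arg9-bradykinin 100 nM); % inhibition relative to maximal achievable inhibition.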

Experiment [2] deals with T2, B1R receptor of rats (rB1R) (Rattus norvegicus, UniProt P97583).
T2 construct: host or cells: CHO K1 cells
T2 sequence (P97583 1-337): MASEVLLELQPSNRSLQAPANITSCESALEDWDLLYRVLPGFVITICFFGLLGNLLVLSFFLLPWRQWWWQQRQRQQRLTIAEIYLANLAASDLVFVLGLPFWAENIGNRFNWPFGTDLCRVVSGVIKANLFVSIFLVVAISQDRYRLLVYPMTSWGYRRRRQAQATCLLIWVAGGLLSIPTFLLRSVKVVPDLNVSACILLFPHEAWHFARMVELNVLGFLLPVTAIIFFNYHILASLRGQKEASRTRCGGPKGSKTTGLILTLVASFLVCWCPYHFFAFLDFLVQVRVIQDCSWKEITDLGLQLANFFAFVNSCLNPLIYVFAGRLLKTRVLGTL
Nature of the experiment: FLIPR Ca2+ assay (Fluo-4) on CHO K1 cells stably transfected with the B1R gene of rats. It is filed as cell-based. As to conditions: CHO-K1; test substance 10 μM; agonist Des-Arg9-bradykinin 100 nM; % inhibition compared to the maximum achievable inhibition. Summed up: as §1

Broadly, the inhibition is the drop in the measured response relative to a control, in per cent.

As for `COc1cc(C)c(S(=O)(=O)N2CCCCC2COCC(=O)N2CCn3cc(Cc4ccncc4)nc3C2)c(C)c1` (stereo not shown) [(120), 2-((1-(4-Methoxy-2,6-dimethylphenylsulfonyl)piperidin-2-yl)methoxy)-1-(2-(pyridin-4-ylmethyl)-5,6-dihydroimidazo[1,2-a]pyrazin-7(8H)-yl)ethanone], the inhibition at 10 µM in experiment [1] amounted to 99%; in experiment [2] it was 105%.

For the compound `COc1ccc(C2c3cccn3CCN2C(=O)COCC2CCCCN2S(=O)(=O)c2c(C)cc(C)cc2C)cc1` (stereo not shown) [(38), 2-((1-(mesitylsulfonyl)piperidin-2-yl)methoxy)-1-(1-(4-methoxyphenyl)-3,4-dihydropyrrolo[1,2-a]pyrazin-2(1H)-yl)ethanone], the inhibition at 10 µM in experiment [1] was found to be 90%; in experiment [2], 99%.

For `COc1cc(C)c(S(=O)(=O)N2CCCCC2COCC(=O)N2CCn3c(Cc4cccnc4)ccc3C2)c(C)c1` (stereo not shown) [(111), 2-((1-(4-Methoxy-2,6-dimethylphenylsulfonyl)piperidin-2-yl)methoxy)-1-(6-(pyridin-3-ylmethyl)-3,4-dihydropyrrolo[1,2-a]pyrazin-2(1H)-yl)ethanone], the inhibition at 10 µM was determined as 100% in experiment [1] and 98% in experiment [2].

Take `COc1cc(C)c(S(=O)(=O)N2CCCCC2COCC(=O)N2CCn3c(CN4CCCCC4)ccc3C2c2ccccc2)c(C)c1` (stereo not shown) [(63), 2-((1-(4-methoxy-2,6-dimethylphenylsulfonyl)piperidin-2-yl)methoxy)-1-(1-phenyl-6-(piperidin-1-ylmethyl)-3,4-dihydropyrrolo[1,2-a]pyrazin-2(1H)-yl)ethanone]: the inhibition at 10 µM in experiment [1] came to 104%; in experiment [2] it was 103%.

As to `Cc1cc(S(=O)(=O)N2CCCCC2CCC(=O)N2CCn3c(CN4CCCC4)ccc3C2)c(C)cc1Cl` (stereo not shown) [(9), 3-(1-(4-chloro-2,5-dimethylphenylsulfonyl)piperidin-2-yl)-1-(6-(pyrrolidin-1-ylmethyl)-3,4-dihydropyrrolo[1,2-a]pyrazin-2(1H)-yl)propan-1-one], the inhibition at 10 µM came to 104% in experiment [1] and 48% in experiment [2].
